How the values were obtained:
Format in all cases: in vivo
compound-treated mice = assay: Neuropharmacological assay (SmartCube): behavioral activity signature and minimal effective dose; conditions: for Potency: minimal effective dose (MED), binned: MED = dose having 50% or more total activity; for AD: ADHD (probability of activity signature) / AG: analgesic (probability of activity signature) / AX: anxiolytic (probability of activity signature) / CE: cognitive enhancer (probability of activity signature) / DP: anti-depressant (probability of activity signature) / MS: mood stabilizer (probability of activity signature) / PS: anti-psychotic (probability of activity signature) / SD: sedative hypnotic (probability of activity signature) / UN: uncharacterized CNS activity (probability of activity signature): i.p. 15 min before test, most efficacious dose(s)
Procedure, shortened: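 Mice dosed i.p. 15 min before test, compound in N-methyl-2-pyrrolidone/PEG/propylene glycol, 3 doses; video-captured behavior matched to reference-drug signatures, giving per-class probabilities at most efficacious dose. MED from doses typically 0.3–30 mpk, defined as lowest dose with ≥50% total activity.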

Male C57Bl/6J mice = assay: Marble burying test; parameters: key: −: No reduction in number of marbles buried; +: Significant reduction in number of marbles buried (P < 0.05 vs vehicle)
Protocol: The marble burying assay is used to evaluate the anxiolytic activity of a test compound. After placement in a novel cage containing glass marbles, mice will bury the marbles. Acute administration of anxiolytic agents, as well as antidepressants, decrease this activity at non-sedating doses. Male C57Bl/6J mice from Jackson Laboratories were used in this study and were acclimatized to the experimental room for at least 1 hour prior to testing. Mice (n=10 per group) were administered sterile water or test compound intraperitoneally (i.p.) or orally by gavage (p.o.), or the positive control chlordiazepoxide (15 mg/kg, i.p.), in 10 mL/kg injection volumes, and returned to their home cages for a 30-minute pretreatment period. The mice were then placed individually in clean cages, containing hard wood bedding and twenty black marbles placed in spaced rows of 4×5. After a 30-minute test session, the number of buried marbles was counted. A marble was considered buried if it was pushed at least two thirds into the bedding. Locomotor activity was monitored by measuring the distance traveled using an overhead camera and Video Tracker Software (ViewPoint Life Sciences Software, France). A reduction in the number of marbles buried relative to the vehicle condition indicates an anxiolytic drug-like effect.

male Sprague-Dawley rats = assay: Stress induced hyperthermia (SIH) assay; parameters: key: −: No change in Delta T ([…]T); +: Significant decrease in Delta T ([…]T) (P < 0.05 vs vehicle)
From the text: Stress-induced hyperthermia (SIH), mediated by the autonomic nervous system, is well known to occur prior to and during exposure to stress and/or anxiety-inducing situations. In many human anxiety disorders, it occurs as an integral part of the pathology and is often considered a representative symptom of the disease, e.g. in generalized anxiety disorder as defined in DSM-IV. In rodents, acute administration of anxiolytic drugs, such as buspirone or chlordiazepoxide (CDP), are known to reduce the SIH response to stressors such as handling, noise, heat, novelty, or pain. The test involves two measures of rectal temperature repeated in the same animal with a 10-minute interval. On the day prior to testing, male Sprague-Dawley rats from Envigo (n=10 per group) were brought to the experimental room approximately one hour before scheduled lights out and singly housed overnight with food and water ad libitum. On the morning of the experiment, animals were first injected with either vehicle or test compound orally by gavage, or CDP (10 mg/kg, i.p.). One hour following injection, each animal was removed from the holding cage and held in a supine position while the rectal temperature was measured by slowly inserting a rectal probe into the animal's rectum at a length of approximately 0.5 cm. The rectal probe was attached to a PhysiTemp digital thermometer (Fisher Scientific) which provides temperature readings at 0.1° C. accuracy. The probe remained inside the animal for approximately 5 seconds or until body temperature reaches stability. This temperature was recorded as the baseline rectal temperature (T1). The animal was immediately placed back to the holding cage and after a 10-min interval the second rectal temperature (T2) was taken using the same procedure as in measuring T1. Before each insertion, the rectal probe was cleaned with an alcohol pad and lubricated with sterile K-Y jelly. All SIH studies were conducted between 8:00-11:00 a.m. The SIH response was calculated as the difference in temperature between the second and first temperature reading (Delta T, […]T). A reduction in […]T relative to the vehicle condition indicates an anxiolytic drug-like response.

Row | Structure (SMILES) | Potency: minimal effective dose (MED), binned (compound-treated mice) | AD: ADHD (probability of activity signature) (compound-treated mice) | AG: analgesic (probability of activity signature) (compound-treated mice) | AX: anxiolytic (probability of activity signature) (compound-treated mice) | CE: cognitive enhancer (probability of activity signature) (compound-treated mice) | DP: anti-depressant (probability of activity signature) (compound-treated mice) | MS: mood stabilizer (probability of activity signature) (compound-treated mice) | PS: anti-psychotic (probability of activity signature) (compound-treated mice) | SD: sedative hypnotic (probability of activity signature) (compound-treated mice) | UN: uncharacterized CNS activity (probability of activity signature) (compound-treated mice) | Marbles Buried (Male C57Bl/6J mice; 3 mg/kg (i.p.)) | Marbles Buried (Male C57Bl/6J mice; 10 mg/kg (i.p.)) | Delta T ([…]T) (male Sprague-Dawley rats; 10 mg/kg PO) | Delta T ([…]T) (male Sprague-Dawley rats; 30 mg/kg PO) | Delta T ([…]T) (male Sprague-Dawley rats; 3 mg/kg PO)
1 | Cc1cccc2c1[C@@H](N)[C@@H](C)OC2 (single isomer, unassigned) [Example 170] | A (≤3 mpk) | + (LOQ ≤ + <5%) | ++ (5% ≤ ++ <25%) | ++ (5% ≤ ++ <25%) | ++ (5% ≤ ++ <25%) | ++ (5% ≤ ++ <25%) | + (LOQ ≤ + <5%) | ++ (5% ≤ ++ <25%) | + (LOQ ≤ + <5%) | ++++ (50% ≤ ++++) | − | + | + | + | 
2 | Cc1ccc2c(c1)[C@H](N)[C@H](C)OC2 [Example 157] | A (≤3 mpk) | + (LOQ ≤ + <5%) | ++ (5% ≤ ++ <25%) | ++ (5% ≤ ++ <25%) | ++ (5% ≤ ++ <25%) | ++ (5% ≤ ++ <25%) | ++ (5% ≤ ++ <25%) | +++ (25% ≤ +++ <50%) | + (LOQ ≤ + <5%) | ++++ (50% ≤ ++++) | − | + | + | + | +
